Data set [1] deals with SC Implanted L1210 Leukemia. The data set can be described thus: Activity against SC implanted L1210 leukemia following intravenous administration, once daily Days 1-5 (Table 5). The format is in vivo, CD2Fl male mice. The note with it: IV once daily Days 1-5. As for the experimental part:
(§1) Biological properties of the compounds of the present invention were determined following the protocol described in Cancer Chemotherapy Reports, Vol. 3, No. 3, 1972 which report is incorporated herein by reference.
In another type of experiment the same platinum complexes were directly compared against the SC implanted L1210 following intravenous administration (Table 5).
This experiment (A8-00004 3LE32) was conducted at the Southern Research Institute, Birmingham, Ala. under the supervision of Dr. Daniel Griswold. The protocols were the same as those published previously (Attachment 11). 10^6 cells were implanted subcutaneously in CD2Fl male mice on Day 0. Drug treatments were given intravenously once daily at the doses indicated on Days 1-5 after tumor implantation. The dosage range tested included the highest and lowest doses indicated in the Table as well as intermediate values which were determined by multiplying each dose in turn by 0.5 starting with the highest dose. The diluent was saline except for NSC-271674 for which 5% sodium bicarbonate was used. All drugs were prepared fresh on the day of injection, and all were administered in solution. Median survival times for both control and drug-treated mice were determined and expressed as a percentage (% T/C). Body weights were determined on Day 5 and expressed as a weight difference (body weight of the drug-treated animals minus that of the control animals in grams) (T-C).

Data set [2] deals with bacteriophage lambda (lambda-lac Z fusion prophage). The data set can be described thus: Biochemical phage induction assay (BIA), induction of bacteriophage lambda (FIG. 1). It counts as cell-based, E. coli (BR 513). How it is done:
The platinum complexes are tested using the BIA quantitative tube assay for dose-dependent induction of bacteriophage lambda according to a previously published procedure of Sarma, D. et al. Chem. Biol. Interactions, 46: 219-232 (1983), which is incorporated herein by reference. A permeable strain of E. coli (BR 513) containing lambda phage is used to test all samples. Expression time for the assay is 5 hours at 38° C. Fresh dilutions of test samples are made in saline (0.85%) on the day of the experiment. Samples are made at 10×final concentration and dispensed according to assay procedure. Final concentrations are 300 μg/ml, 200 μg/ml, 100 μg/ml, 60 μg/ml, 25 μg/ml, 10 μg/ml and a zero control.
This strain of bacteria contains a chromosomally integrated lambda-lac Z fusion phage under control of the lambda repressor. Treatment with DNA-damaging agents leads to derepression of prophage and synthesis of β-galacto-sidase, product of the lac Z gene. β-galactosidase is detected by reaction with a substrate (O-nitrophenyl-D-galactopyranoside (ONPG)) to give a yellow-colored product. Tubes are incubated at 28° C. (a few minutes to several hours to an A420 ≈0.5-1.0). Color development is stopped by the addition of base (1M Na2 CO3), and the yellow color is measured by absorbance at 420 nm. The exact time required for color development is recorded. Enzyme Units=100 A420 /thr where A420 =absorbance at 420 nm; thr =time required to develop yellow color in hours. One enzyme unit is the approximate value of an uninduced control tube at zero time.
This assay detects a wide variety of compounds which interact with DNA. […] This finding may support the hypothesis that platinum IV complexes are chemically less reactive. However, in vivo there is evidence that platinum IV complexes may be reduced to platinum (II) complexes [Pendyala, L. Proceedings 13th International Cancer Congress, Seatle, Wash., #3034, page 531, (1982)]. […] It is noted that the four isomers are not equal in their ability to induce the prophage.

The next data set relates to IP L1210. The data set can be described thus: Activity against IP-implanted L1210 leukemia sensitive to cisplatin, 30 day test (Table 3). It counts as in vivo, Female CD2Fl mice. How it is done: as §1
Other known mechanisms of resistance for other classes of agents, such as gene amplification or target enzyme change or amplication, also need to be explored. The experiments summarized in Table 3 were conducted at the same time against both sublines using the same drug preparations. […] These experiments were repeated in a second laboratory as documented in Table 4. However, in these experiments the animals were held for 60 rather than 30 days to evaluate whether or not long-term survivors are produced after drug treatment in a more challenging setting.
This experiment (A8-00005 3LE31) was conducted at the Southern Research Institute, Birmingham, Ala. under the supervision of Dr. Daniel Griswold. The protocols were the same as those published previously (Geran et al., Cancer Chemotherapy Reports 3: No. 2, 1972 [Attachment 11]). 10^5 cells were implanted intraperitoneally in CD2Fl male mice on Day 0. Drug treatments were given intraperitoneally as single injections at the doses indicated on Days 1, 5 and 9 after tumor implantation. The diluent was saline except for NSC-271674 where 5% sodium bicarbonate was used. All drugs were prepared fresh on the day of injection, and all were administered in solution. Median survival times for both control and drug-treated mice were determined and expressed as a percentage (% T/C). Body weights were determined on Day 5 and expressed as a weight difference (body weight of the drug-treated animals minus that of the control animals in grams) (T-C). The diluent control animals lived a median of 8.4 days and gained 1.9 grams by Day 5 in this experiment. All animals, including Day 30 survivors, were used in the calculation of median survival times. The log10 change in tumor burden refers to the net log change in viable tumor cell population at the end of therapy (Rx) as compared to the start of therapy; e.g., a […] means that there was a […] and a 3 log change means there was a 1000-fold increase in tumor burden at the end of therapy. The tumor burden at the start of therapy was about 6.1×10^5 cells in this experiment.
These experiments (A8-00008 3LE31 and A8-00001 3DP31) were conducted concurrently at the Southern Research Institute, Birmingham, Ala. under the supervision of Dr. Daniel Griswold. See Table 4 for experimental details. The diluent control animals bearing L1210 leukemia lived a median of 8.6 days and gained 1.3 grams by Day 5. […] Female CD2Fl mice were used for these experiments.

Data set [3] has as its system L1210 and L1210/Cisplatin leukemia. Kind of data set: Total number of long-term survivors in Tables 2-4. The note with it: Tables 2-4 summed. The format is in vivo, CD2Fl mice. An excerpt:
If one summarizes the data in Tables 2-4 by totalling the number of long-term survivors, unexpected differences among the isomers become apparent. For example, the trans l compound produced 30 long-term survivors.

A further data set concerns IP L1210 leukemia. Kind of data set: Mouse optimal (highest tolerated) dose, IP L1210 leukemia, Days 1, 5 and 9 schedule (Table 7). It counts as in vivo. The source says: *IP L1210 leukemia, Days 1, 5 and 9 schedule. Highest tolerated dose in a
least 2 of 3 experiments (i.e,. animal weight difference (testcontrol)

SMILES strings stand for the structures.

In the case of `[Cl][Pt]1([Cl])([Cl])([Cl])[NH]C2CCCCC2[NH]1` (stereo not drawn) [trans (d, l), (d,l)-Tetrachloro-trans-1,2-cyclohexanediamine platinum (IV)], the “Optimal Dose” value in data set [1] turned out to be 2.5 mg/kg/inj. In addition, the “Effectiveness in inducing prophage” value in data set [2] is listed as “intermediate in effectiveness”. Further, in data set [2], the “Prophage induction, enzyme units” value is reported as “about 68 enzyme units”. For the same compound, the “30 Day Survivors/Total” value is given as 0/6 in the data set with IP L1210 (1 mg/kg/dose); 0/6 in the data set with IP L1210 (2 mg/kg/dose); 2/6 in the data set with IP L1210 (4 mg/kg/dose); 3/6 with IP L1210 (8 mg/kg/dose); 1/6 in the data set on IP L1210 (16 mg/kg/dose). Besides, the “Approx. Log10 Change in Tumor Burden at End of RX” value (“Approx. Log10 Change” for short) in the data set on IP L1210 (1 mg/kg/dose) is given as approximately 2.8 log10; in the data set with IP L1210 (2 mg/kg/dose), approximately 2.4 log10; in the data set on IP L1210 (4 mg/kg/dose) it was approximately -1.5 log10; in the data set with IP L1210 (8 mg/kg/dose) it was approximately -5.9 log10. Besides, the “Median % T/C” value in the data set on IP L1210 (1 mg/kg/dose) is on record as 125%; in the data set with IP L1210 (2 mg/kg/dose), 151%; in the data set with IP L1210 (4 mg/kg/dose) it was 212%; in the data set with IP L1210 (8 mg/kg/dose), 348%; with IP L1210 (16 mg/kg/dose), 143%. Also, the “Total number of long-term survivors” value in data set [3] is reported as 27. Further, the “Mouse Optimal Dose (highest tolerated dose in at least 2 of 3 experiments)” value in the data set with IP L1210 leukemia is recorded as 8 mg/kg.
As for `[Cl][Pt-2]1([Cl])([Cl])([Cl])[NH2+][C@@H]2CCCC[C@H]2[NH2+]1` [trans (l), (1R,2R)-Tetrachloro-trans-1,2-cyclohexanediammine platinum (IV)], the “Optimal Dose” value in data set [1] was determined as 2.5 mg/kg/inj. In data set [2], the “Concentration of optimal effect in prophage induction” value was found to be 50 µg/mL; the “Effectiveness in inducing prophage” value is reported as “most effective inducers among the four”; the “Prophage induction, enzyme units” value is given as “about 104 enzyme units”. Further, in the data set on IP L1210 (1 mg/kg/dose), the “30 Day Survivors/Total” value is recorded as 0/6, the “Approx. Log10 Change” value is given as approximately 2.5 log10 and the “Median % T/C” value turned out to be 143%. Besides, in the data set with IP L1210 (2 mg/kg/dose), the “30 Day Survivors/Total” value is recorded as 1/6, the “Approx. Log10 Change” value is recorded as approximately -0.4 log10 and the “Median % T/C” value turned out to be 197%. In the data set on IP L1210 (4 mg/kg/dose), the “30 Day Survivors/Total” value is reported as 2/6, the “Approx. Log10 Change” value is reported as approximately -5.9 log10 and the “Median % T/C” value is listed as 313%. In the data set with IP L1210 (8 mg/kg/dose), the “30 Day Survivors/Total” value is reported as 4/6, the “Approx. Log10 Change” value was approximately -5.9 log10 and the “Median % T/C” value was 348%. In the data set with IP L1210 (16 mg/kg/dose), the “30 Day Survivors/Total” value was 0/6 and the “Median % T/C” value turned out to be 93%. The “Total number of long-term survivors” value in data set [3] came to 30. Besides, the “Mouse Optimal Dose (highest tolerated dose in at least 2 of 3 experiments)” value in the data set with IP L1210 leukemia was 8 mg/kg.

(Values after patent publication US4599352A, “Antineoplastic platinum (IV) complexes and compositions” (priority 1984, dated 1986).)
